Source: patent publication US4624954A, “6,7,8,9-tetrahydro-10-methylpyrido[1,2-a]indol-9-amines and derivatives thereof, useful for the treatment of cognitive impairments” (American Home Products Corporation, priority 1985, dated 1986)
Where a name gives a salt, the structure may show the parent alone.

Experiment: Anoxia-induced lethality test in mice (survival in 100% nitrogen)
Assay type: in vivo, Male, CD-1 mice
Settings: Mus musculus, ip, 30 minutes prior to testing; 100% nitrogen for 80 seconds; read-out: ED50, protected from anoxia-induced lethality in mice
From the text: To test the protective ability of the compounds of formula I against the physical consequences of anoxia, mice were exposed to an atmosphere of pure nitrogen which killed all of the animals. Intraperitoneal pretreatment of mice with the compounds of formula I protected them against this lethal effect.
ANOXIA-INDUCED LETHALITY TEST IN MICE
The anoxia-induced lethality test in mice evaluates the activity of drugs which protect the animal from deleterious effects of oxygen-lack, such as occurs in conditions of cerebral ischemia. Activity is measured as the survival rate in mice exposed to 100% nitrogen for 80 seconds, a procedure which is lethal to […] of untreated animals.
Test compounds are dissolved in water, or suspended in 0.2% aqueous Tween 80 and are administered i.p., 30 minutes prior to testing. Several doses and a vehicle control are tested, with 8 mice receiving each dose.
Male, CD-1 mice weighing 18-20 g are used. Mice are held separately within a cage in a modified plastic, air-tight desiccator which is connected to a tank of compressed 100% nitrogen gas.
Delivery of the anoxic gas is controlled by means of a toggle valve, and exposure is terminated by rapidly removing the mice from the desiccator. All operations are timed with a stopwatch. An ED50 value is determined from the percentage of mice which survive in each group. Drugs which reduce the anoxia-induced lethality solely by lowering body temperature are excluded.

`Cc1c2n(c3ccccc13)CCCC2N(C)C.Cl` (stereo not drawn) [Example 3, 6,7,8,9-Tetrahydro-N,N,10-trimethylpyrido[1,2-a]indole-9-amine Hydrochloride] showed an ED50 of 13.5 mg/kg.

Same assay, conditions: Mus musculus, ip, read-out: ED50, protected from anoxia-induced lethality in mice

`Cc1c2n(c3ccccc13)CCCC2N1CCCCC1.Cl` (stereo not drawn) [Example 8, 6,7,8,9-Tetrahydro-10-methyl-9-(1-piperidinyl)-pyrido[1,2-a]indole Hydrochloride] and `Cc1c2n(c3ccccc13)CCCC2N1CCCC1.Cl` (stereo not drawn) [Example 2, 6,7,8,9-Tetrahydro-10-methyl-9-(1-pyrrolidinyl)pyrido[1,2-a]indole Hydrochloride] are within 1.5-fold of each other in ED50: 55.7 mg/kg for the first, 83.3 mg/kg for the second.

Going from `Cc1c2n(c3ccccc13)CCCC2N1CCOCC1.Cl` (stereo not drawn) [Example 9, 6,7,8,9-Tetrahydro-10-methyl-9-(4-morpholinyl)-pyrido[1,2-a]indole Hydrochloride] to `Cc1c2n(c3ccc(Br)cc13)CCCC2N1CCCCC1.Cl` (stereo not drawn) [Example 19, 2-Bromo-6,7,8,9-tetrahydro-10-methyl-9-(1-piperidinyl)-pyrido[1,2-a]indole Hydrochloride], the ED50 rises from 32.4 mg/kg to 110 mg/kg (3.4-fold).

Compared with `Br.Cc1c2n(c3ccccc13)CCC(C)(C)C2N(C)C` (stereo not drawn) [Example 4, 6,7,8,9-Tetrahydro-N,N,8,8,10-pentamethylpyrido[1,2-a]indol-9-amine Hydrobromide], `Cc1c2n(c3ccccc13)CCC(C)(C)C2N.Cl` (stereo not drawn) [Example 29, 6,7,8,9-Tetrahydro-8,8,10-trimethylpyrido[1,2-a]indol-9-amine Hydrochloride] is 3.4-fold higher in ED50: 5 mg/kg for the first, 17.2 mg/kg for the second.

Going from `Cc1c2n(c3ccc(Br)cc13)CCC(C)(C)C2N1CCCC1.Cl` (stereo not drawn) [Example 17, 2-Bromo-6,7,8,9-tetrahydro-8,8,10-trimethyl-9-(1-pyrrolidinyl)pyrido[1,2-a]indole Hydrochloride] to `Br.Cc1c2n(c3ccc(O)cc13)CCC(C)(C)C2N1CCCC1` (stereo not drawn) [Example 33, 6,7,8,9-Tetrahydro-2-hydroxy-8,8,10-trimethyl-9-(1-pyrrolidinyl)-pyrido[1,2-a]indole Hydrobromide], the ED50 falls from 50 mg/kg to 20 mg/kg (2.5-fold).

`CNC1CCCn2c1c(C)c1ccc(OC)cc12.Cl` (stereo not drawn) [Example 27, 6,7,8,9-Tetrahydro-3-methoxy-N,10-dimethylpyrido[1,2-a]indol-9-amine Hydrochloride] and `COc1ccc2c(C)c3n(c2c1)CCCC3N(C)C.Cl` (stereo not drawn) [Example 28, 6,7,8,9-Tetrahydro-3-methoxy-N,N,10-trimethylpyrido[1,2-a]indol-9-amine Hydrochloride] are within 1.5-fold of each other in ED50: 15.1 mg/kg for the first, 20 mg/kg for the second.

Compared with `CCC1(CC)CCn2c(c(C)c3ccccc32)C1N1CCCC1` (stereo not drawn) [Example 6, 8,8-diethyl-6,7,8,9-tetrahydro-10-methyl-9-(1-pyrolidinyl)pyrido[1,2-a]indole Hydrochloride], `Cc1c2n(c3ccccc13)CCC(C)(C)C2N1CCCC1` (stereo not drawn) [Example 1, 6,7,8,9-Tetrahydro-8,8,10-trimethyl-9-(1-pyrrolidinyl)-pyrido[1,2,a]indole Hydrochloride] is 1.8-fold lower in ED50: 20 mg/kg for the first, 11.2 mg/kg for the second.

First: C#CCNC1CCCn2c1c(C)c1ccccc12.Cl (stereo not drawn) [Example 7, 6,7,8,9-Tetrahydro-10-methyl-N-(2-propynyl)pyrido[1,2-a]indol-9-amine Hydrochloride]
Second: Cc1c2n(c3ccccc13)CCC(C)(C)C2N(C)C1CCCCC1 (stereo not drawn) [Example 32, N-Cyclohexyl-6,7,8,9-tetrahydro-N,8,8,10-tetramethylpyrido[1,2-a]indol-9-amine]
The ED50 of the first is 2.5-fold higher: 22 mg/kg for the first, 8.8 mg/kg for the second.

Experiment: Passive avoidance test: prevention of scopolamine-induced memory impairment in rats
Assay type: in vivo, male Sprague-Dawley rats
Settings: 30 mg/kg test compound, oral, 75 or 90 min before training; scopolamine 2 mg/kg s.c.; retention test 24 h later, 180 seconds access
Description: In the test, a rat must remember to avoid a darkened enclosure where it had been shocked the previous day.
This passive avoidance procedure uses a test chamber divided into two compartments: a lighted compartment and a dark compartment.
The two compartments are separated by a solenoid-operated slide door. An inescapable foot shock (750 μA for two seconds) can be presented to the grid floor of the dark compartment.
On the training day, male Sprague-Dawley rats (eight animals are tested per group) are placed in the lighted compartment and given access to the adjacent dark compartment. Upon entering the dark compartment, the rat is given an inescapable foot shock. Twenty-four hours later retention (memory) is tested: the rat is placed in the lighted compartment and allowed access to the dark compartment for 180 seconds.
Compounds to be tested are dissolved in 0.9% saline or suspended in Tween 80 (0.2% v/v in saline) or methyl cellulose (0.5% w/v in distilled water). […] Appropriate vehicle and control groups are included with each experiment. Each animal is given a single training trial.

Going from `Cc1c2n(c3ccccc13)CCCC2N1CCCC1.Cl` (stereo not drawn) [Example 2, 6,7,8,9-Tetrahydro-10-methyl-9-(1-pyrrolidinyl)pyrido[1,2-a]indole Hydrochloride] to `Cc1c2n(c3ccccc13)CCC(C)(C)C2N1CCCC1` (stereo not drawn) [Example 1, 6,7,8,9-Tetrahydro-8,8,10-trimethyl-9-(1-pyrrolidinyl)-pyrido[1,2,a]indole Hydrochloride], the “mean entry latency on retention day” value rises from 135 s to 152 s.

Experiment: not given
Settings: scopolamine alone; passive avoidance; cited from earlier work

In the case of `CN1[C@@H]2C[C@@H](OC(=O)[C@H](CO)c3ccccc3)C[C@H]1[C@@H]1O[C@@H]12` [scopolamine], the “memory effect of scopolamine (in words)” value is listed as “impairs the rat's ability to remember to avoid the darkened enclosure”.
